# Like-named read-outs stand apart in the source and are kept apart here.
# Legend:
# [1] = system: iron chloride-induced thrombus models; settings: mice, intravenous administration; cited from earlier work
# TAFIa = TAFIa (Homo sapiens (Human), UniProt Q96IY4); experiment: Determination of TAFIa enzyme inhibitory activity (FAAK substrate degradation); assay type: biochemical; settings: read-out: TAFIa IC50
# Protocol: Determination of TAFIa Enzyme Inhibitory Activity
# HEPES buffered saline (20 mM HEPES, 150 mM NaCl, pH 7.4; hereinafter, referred to as HBS) was used in the preparation of a reaction solution. To 12 μL of a 250 μg/mL TAFI solution, 30 μL of an HBS solution containing 4 U/mL human thrombin, 12 U/mL rabbit lung thrombomodulin, and 12 mM CaCl2 was added, and the mixture was gently stirred. Then, TAFI was activated at room temperature. Ten minutes later, thrombin was neutralized by the addition of 10 μL of 100 μM PPACK (thrombin inhibitor) to terminate the activation of TAFI. The formed TAFIa was stored in ice and diluted immediately before use in determination with 2050 μL of an HBS solution containing BSA (bovine serum albumin) adjusted to 0.1% in terms of the final concentration.
# (2) Determination of TAFIa Inhibitory Activity
# A test substance was dissolved in HBS to prepare a 10-fold dilution series of evaluation concentrations. 80 μL of the TAFIa solution and 10 μL of the test substance were added to each well of a 96-well plate and mixed by shaking for 10 minutes. 10 μL of furylacryloyl-alanyl-lysine (FAAK) adjusted to 5 mg/mL was added to each well, and the change in the absorbance of this mixed solution at 330 nm was read for 30 minutes to determine the degradation rate of the substrate.
# (3) Calculation of Inhibitory Activity IC50
# The degradation rate of the substrate in each well was applied to a standard curve prepared using the dilution series of the TAFIa solution to calculate TAFIa activity.
# [2] = TAFI activated with human thrombin / rabbit lung thrombomodulin, substrate FAAK, absorbance at 330 nm
# TAFIa, sequence (Q96IY4 115-423): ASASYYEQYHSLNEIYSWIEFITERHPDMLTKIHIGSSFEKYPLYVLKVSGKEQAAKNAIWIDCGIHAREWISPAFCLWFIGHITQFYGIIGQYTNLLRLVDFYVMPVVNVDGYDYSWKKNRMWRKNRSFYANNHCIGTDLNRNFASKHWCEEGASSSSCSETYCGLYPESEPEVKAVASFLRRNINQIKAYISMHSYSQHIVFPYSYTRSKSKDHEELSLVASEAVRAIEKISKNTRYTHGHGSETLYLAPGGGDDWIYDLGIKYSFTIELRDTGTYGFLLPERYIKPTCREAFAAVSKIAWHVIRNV
Molecule,IC50 (TAFIa; [2]) [nM],IC50 (TAFIa) [nM],also measured
"potato carboxypeptidase inhibitor (PCI) (QQHADPICNKPCKTHDDCSGAWFCQACWNSARTCGPYVG; UniProt P01075 1-39, looked up)",,,antithrombotic effect [1]: antithrombotic effect
"C[C@H]1CC[C@H](n2cnc([C@@]3(C(=O)O)C[C@@H]3CCCN)c2)CC1 (relative stereo) [Example 5, (1R*,2S*)-2-(3-Aminopropyl)-1-[1-(trans-4-methylcyclohexyl)-1H-imidazol-4-yl]cyclopropanecarboxylic acid]",14,,
"CCC[C@@H](CN)C[C@@H]1C[C@@]1(C(=O)O)c1cn(-c2ccccn2)cn1 [Example 67, (1S,2R)-2-[(2R)-2-(Aminomethyl)pentyl]-1-(1-pyridin-2-yl-1H-imidazol-4-yl)cyclopropanecarboxylic acid]",,> 100,
"NCCC[C@H]1C[C@]1(C(=O)O)c1cn(-c2cccnc2)cn1 (relative stereo) [Example 24, (1R*,2S*)-2-(3-Aminopropyl)-1-(1-pyridin-3-yl-1H-imidazol-4-yl)cyclopropanecarboxylic acid]",98,,
"CC(C)(C)CCn1cnc([C@@]2(C(=O)O)C[C@@H]2CCCN)c1 [Example 28, (1R,2S)-2-(3-Aminopropyl)-1-[1-(3,3-dimethylbutyl)-1H-imidazol-4-yl]cyclopropanecarboxylic acid]",,4.5,

# Source: patent publication US9662310B2, “Cyclopropanecarboxylic acid derivative” (DAIICHI SANKYO COMPANY, LIMITED, priority 2010, dated 2017)
